# Reference: patent US20020132019A1, “Sterol fractions of Nigella sativa L. seeds” (priority 2000, published 2002)
# What was measured:
# Format in all cases: in vivo
# [1] = system: histamine-induced bronchospasm in guinea pigs; assay: Prophylactic anti-allergic effect: protection against histamine aerosol (1%) induced bronchospasm; settings: 239 mg/kg i.p.
# Protocol: The prophylactic anti-allergic effects of the Nigella sativa L. sterol fraction were evaluated in guinea pigs (300-400 grams). Animals were divided into 5 groups (10 animals each) and treated i.p. As follows:
# First: Animals treated by saline.
# Second: Animals treated by diphenhydramine (239 mg/kg/day).
# Third: Animals treated by the Nigella sativa L. sterol fraction (50 mg/kg).
# Animals treated by the Nigella sativa L. sterol fraction (100 mg/kg).
# Fifth: Animals treated by the Nigella sativa L. sterol fraction (150mg/kg).
# Animals were exposed 30 minutes after their i.p. Injection of diphenhydramine and the Nigella sativa L. sterol fraction (50,100 and 150 mg/kg) to histamine aerosol (1% for 3 minutes to induce bronchospasm or tachypnea) (Armitage et al, Br. J. Pharmacol., 16:59-76 (1961)). The percent protection against bronchospasm and loss of rightening after 30, 60 and 90 minutes was calculated (Dawson and Sweatman, Br. J. Pharmacol, 71:387-398 (1980)).
# [2] = system: guinea pigs exposed to histamine aerosol (0.25%); assay: Prophylactic anti-asthmatic effect: pre-convulsive time on histamine aerosol (0.25%); settings: 50 :g/kg, treated for 21 days, histamine 0.25% aerosol
# Protocol: This example explains an in vivo study to evaluate the prophylactic (protective) anti-asthmatic effect of the Nigella sativa L. sterol fraction. The prophylactic anti-asthmatic effect was evaluated in vivo by measurement of the pre-convulsive time in guinea pigs exposed to histamine aerosol (0.25%).
# Guinea pigs were divided into three groups with 8 animals per group. The first group received saline injections to serve as negative control. The second group received ketotifen, which is the standard treatment to serve as positive control. The third group received 200 mg/kg each of the Nigella sativa L. sterol fraction of the present invention.
# Animals in all groups were treated for 21 days after which time they were exposed to histamine (0.25 %) aerosol and the preconvulsive time was recorded.
# [3] = system: ova albumin sensitized guinea pigs; assay: Tachypnea protective effect in ova albumin sensitized animals; settings: 50 :g/kg, treated for 21 days, ova albumin inhalation
# Protocol: This experiment was an in vivo study to evaluate the tachypnea (protective) effect of the Nigella sativa L. sterol fraction of the present invention. The second protocol involved sensitized animals. Animals were sensitized by injecting ova albumin in two doses 100 mg. each (S.C. and I.P., simultaneously). Animals were resensitized 15 days later. Guinea pigs were divided into three groups with 8 animals per group. The first group received a saline injection to serve as negative control. The second group received ketotifen which is the standard treatment to serve as positive control. The third group received 200 mg/kg each of the Nigella sativa L. sterol fraction of the present invention. Animals in all groups were treated for 21 days following which they were exposed to ova albumin inhalation and time to onset of tachypnea was recorded as shown in the table below.
Structure (SMILES),% protection 30 minutes ([1]; 30 minutes),% protection 60 minutes ([1]; 60 minutes),% protection 90 minutes ([1]; 90 minutes),% of Prophylaxis (Protection) [2],% of Prophylaxis [3]
"CN(C)CCOC(c1ccccc1)c1ccccc1 [Diphenhydramine, diphenhydramine]",100%,100%,90%,,
CN1CCC(=C2c3ccccc3CC(=O)c3sccc32)CC1 [ketotifen],,,,82.85%,44.4%
